Data: publication PMC4079326 (Journal of Medicinal Chemistry, 2014)
Values belong to the compound of their own block, whether it stands above or below them.

Assays:
TEM-1 = TEM-1 (Escherichia coli, UniProt P62593); assay type: biochemical
AmpC = AmpC (Escherichia coli, UniProt P00811); assay type: biochemical
TEM-30 R244S = TEM-30 R244S (Escherichia coli, UniProt P62593, R241S); assay type: biochemical; conditions: 4 vs 5 on TEM-30
CTX-M-9 [1] = biological target: T1, CTX-M-9 (Escherichia coli, UniProt Q9L5C8); assay type: biochemical; conditions: class A
[2] = data not shown
CTX-M-9 [3] = biological target: T1, CTX-M-9; conditions: read-out: affinity toward CTX-M-9 (Ki); cited from earlier work

Compound: CC(=O)/C=C/c1c(B(O)O)sc2ccccc12 [Compound 4]
times less active vs class A (TEM-1): 125 times
times less active vs AmpC (AmpC): 8 times
change of binding vs TEM-30 with respect to compound 5 (TEM-30 R244S): less than 1 fold

gain in affinity vs CTX with respect to starting lead 1 (CTX-M-9 [1]): 1250 fold
gain in affinity vs TEM-1 with respect to starting lead 1 (TEM-1; class A): 1250 fold
improvement of binding energy vs TEM-1 (TEM-1; moving from 1 to 5): 2.8 kcal/mol
stability in microbiology assay conditions over time [2]: unstable
Compound: O=C(O)/C=C/c1c(B(O)O)sc2ccccc12 [Compound 5, 3-(2-carboxyvinyl)benzo(b)thiophene-2-boronic acid]

Compound: O=C(Cc1cccs1)N[C@H](B(O)O)c1cccc(C(=O)O)c1 [SMS2, (1R)-1-(2-thienylacetylamino)-1-(3-carboxyphenyl)methylboronic acid]
Ki (CTX-M-9 [3]): 578 nM
